Patent US5130485A, “N-hydroxy-N-(3-(2-substituted phenyl)prop-2-enyl)ureas and thioureas useful as 5-lipoxygenase inhibiting agents” (Eli Lilly and Company, priority 1991, dated 1992)

Assays:
5-LO [1] = assay: In vitro inhibition of 5-LO: Schultz-Dale reaction (ovalbumin-induced contraction of tracheal strips from actively sensitized guinea pigs); assay type: tissue-based, guinea pig (male Hartley); details: Cavia porcellus; sensitized guinea-pig tracheal strips; antigen (OA) 30 ng/ml; 30 min preincubation; indomethacin 5 μM, pyrilamine 10 μM
Experimental: Male, Hartley strain guinea-pigs (200-250 g) were actively sensitized by three injections of ovalbumin (OA, 10 mg/kg). The OA was administered intraperitoneally on Days 1 and 3 and subcutaneously on Day 5. In vitro experiments were performed 21-25 days later.
On the day of the experiment, guinea pigs were killed by asphyxiation with CO2 and the tracheas removed, cleaned of surrounding connective tissue and cut into sprial strips. Each strip was divided in half for paired experiments. Tissues were placed in 10 ml jacketed tissue baths maintained at 37° C. and attached with cotton thread to Grass force-displacement transducers (FT03C). […] Tracheal strips were bathed in modified Krebs' solution of the following composition (millimolar) NaCl, 118.2; KCl, 4.6; CaCl2.2H2 O, 2.5; MgSO4.7H2 O, 1.2; NaHCO3, 24.8; KH2 PO4, 1.0; and dextrose, 10.0. The buffer contained indomethacin (5 μM) which potentiated the contractions of the cysteinyl leukotrienes (LT) by removing the influence of cyclooxygenase products. The tissue baths were aerated with 95% O2 :5% CO2. Tracheal strips were placed under a resting tension of 2 g, and the tissues were allowed a minimal stabilization period of 60 minutes before undergoing experimentation. Bath fluid was changed at 15 minute intervals during the stabilization period.
Concentration-response curves
Cumulative concentration-response curves were obtained from tracheal strips by increasing the agonist concentration in the organ bath by half-log increments while the previous concentration remained in contact with the tissues van Rossum, Arch, Int. Pharmacodymn Ther., 143, 299-330 (1963). Agonist concentration was increased after reaching the plateau of the contraction elicited by the preceeding concentration. One concentration-response curve was obtained from each tissue. To minimize variability between tissues, contractile responses were expressed as a percentage of the maximal response obtained with carbachol (10 μM), added to the bath at the end of the concentration-response curve. Initially, tissues were challenged with carbachol (10 μM) following the 60 minute stabilization period to insure tissue viability. After recording the maximal response to the initial carbachol challenge, the tissues were washed and re-equilibrated for 60 minutes before starting the experimental protocol.
Determination of EC50 and % Inhibition
To evaluate the effects of novel 5-lipoxygenase inhibitors in the Schultz-Dale reaction, each compound was incubated with the tissues 30 minutes before starting the curves. Vehicle (DMSO) was given to the paired control tissue. Pyrilamine (10 μM) was added to all baths at this time to block the actions of released histamine. Responses obtained at the antigen concentration of 30 ng/ml were recorded in the absence and presence of drug and percent inhibition was calculated for each pair of tissues. IC50 values were determined by linear regression.
LT or carbachol concentration-response curves were used to determine specificity of the agent as a 5-lipoxygenase inhibitor. In these experiments the test compound was incubated as described above. EC50 values, which represent the molar concentration of agonist required to induce 50% of maximal response, was determined by linear regression. Differences in EC50 values, in the presence and absence of test compound were analyzed by Student's t-test with P<0.05 regarded as significant.

5-LO [2] = assay: In vivo inhibition of OA-induced increase in tracheal pressure in passively sensitized guinea pigs, oral dosing; design: species or system guinea pig (male Hartley); details: 2 hr, OA challenge; for inhibition in vivo at 30 mg/kg: Cavia porcellus, read-out: Inhibition of 5-LO In Vivo Percent Inhibition at 30 mg/kg, po, 2 hr.
Experimental: Male Hartley guinea pigs (350-500 g) were passively sensitized against ovalbumin by i.p. administration of 0.3 ml of antiserum 2 days preceeding the experiment. Hyperimmune serum was prepared from actively sensitizing male guinea pigs conditioned with 2 mg of ovalbumin in 50% Complete Freund's Adjuvant i.p. on days 1 and 5. On day 21, the animals were bled and the serum collected and stored at -20° C. On the day of the experiment the passively sensitized guinea pigs were anesthetized with 35 to 40 mg/kg of pentobarbital sodium given i.p. The right jugular vein was cannulated with Tygon microbore tubing (o.d.=03) connected to a syringe for administration of selected drugs. Blood pressure was measured with a Statham pressure transducer connected to a Tygon catheter placed in the left carotid artery. The trachea was cannulated and each animal was ventilated with room air by means of a Harvard rodent respirator set to deliver a tidal volume of 1 ml/100 g body weight with a rate of 60 breaths/minute. Succinylcholine (5 mg/kg) was given i.v. to suppress spontaneous respiration. Intratracheal pressure, an index of total pulmonary resistance, was measured with a Statham pressure transducer connected to a T-tube on the tracheal cannula. […] Body temperature was maintained within normal limits by means of a Deltaphase isothermal pad. Prior to surgery, test compound or vehicle (PEG 400) was administered to each guinea pig by oral gavage and OA challenge was at designated times following oral dosing. The animals were pretreated i.v. with pyrilamine (5 mg/kg), propranolol (1 mg/kg) and indomethacin (10 mg/kg) 5 minutes prior to the OA challenge. OA-induced increase in tracheal pressure was expressed as a percentage of the maximal pressure obtained by clamping the trachea with a hemistat. To determine the effect of each drug, a % inhibition value was calculated from the vehicle and drug treated animals at each concentration tested.

| Compound | IC50 (5-LO [1]) | inhibition in vivo at 30 mg/kg (5-LO [2]) | Inhibition of 5-LO In Vivo Percent Inhibition (dose of 10 mg/kg) (5-LO [2]; 10 mg/kg (footnote a)) |
| --- | --- | --- | --- |
| C#CCSc1ccccc1C=CCN(O)C(N)=O [Example 1, N-hydroxy-N-[3-[2-(2-propynylthio)phenyl]prop-2-enyl]urea] | 2100 nM | 78% |  |
| C#CCCSc1ccccc1C=CCN(O)C(N)=O [Example 2, N-hydroxy-N-[3-[2-(3-butynylthio)phenyl]prop-2-enyl]urea] | 1000 nM | 50% |  |
| CC#CCSc1ccccc1C=CCN(O)C(N)=O [Example 3, N-hydroxy-N-[3-[2-(2-butynylthio)phenyl]prop-2-enyl]urea] | 600 nM |  | 30% |
| C=CCCSc1ccccc1C=CCN(O)C(N)=O [Example 4, N-hydroxy-N-[3-[2-(3-butenylthio)phenyl]-prop-2-enyl]urea] | 390 nM | 81% |  |
| NC(=O)N(O)CC=Cc1ccccc1SCC1CCCCC1 [Example 5, N-hydroxy-N-[3-[2-(cyclohexylmethylthio)phenyl]-prop-2-enyl]urea] | 1200 nM | 76% |  |
| NC(=O)N(O)CC=Cc1ccccc1SCC1CC1 [Example 6, N-hydroxy-N-[3-[2-(cyclopropylmethylthio)phenyl]-prop-2-enyl]urea] | 620 nM | 75% |  |
| C#CCOc1ccccc1C=CCN(O)C(N)=O [Example 7, N-hydroxy-N-[3-[2-(2-propynyloxy)phenyl]prop-2-enyl]urea] | 2400 nM | 93% |  |
| C#CCSc1ccccc1C=C(C)CN(O)C(N)=O [Example 8, N-hydroxy-N-[2-methyl-3-[2-(2-propynylthio)phenyl]prop-2-enyl]urea] | 1800 nM | 51% |  |
| C#CCSc1c(F)cccc1C=CCN(O)C(N)=O [Example 9, N-hydroxy-N-[3-[3-fluoro-2-(2-propynylthio)phenyl]prop-2-enyl]urea] | 1000 nM | 93% |  |
